{"source": "BindingDB's records for patent US10646492", "about": "(Incyte Corporation; Incyte Holdings Corporation, 2020)", "data": [{"target": "T1, Phosphatidylinositol 4,5-bisphosphate 3-kinase catalytic subunit delta isoform (Homo sapiens, UniProt O00329)", "T1 sequence (O00329 whole entry)": "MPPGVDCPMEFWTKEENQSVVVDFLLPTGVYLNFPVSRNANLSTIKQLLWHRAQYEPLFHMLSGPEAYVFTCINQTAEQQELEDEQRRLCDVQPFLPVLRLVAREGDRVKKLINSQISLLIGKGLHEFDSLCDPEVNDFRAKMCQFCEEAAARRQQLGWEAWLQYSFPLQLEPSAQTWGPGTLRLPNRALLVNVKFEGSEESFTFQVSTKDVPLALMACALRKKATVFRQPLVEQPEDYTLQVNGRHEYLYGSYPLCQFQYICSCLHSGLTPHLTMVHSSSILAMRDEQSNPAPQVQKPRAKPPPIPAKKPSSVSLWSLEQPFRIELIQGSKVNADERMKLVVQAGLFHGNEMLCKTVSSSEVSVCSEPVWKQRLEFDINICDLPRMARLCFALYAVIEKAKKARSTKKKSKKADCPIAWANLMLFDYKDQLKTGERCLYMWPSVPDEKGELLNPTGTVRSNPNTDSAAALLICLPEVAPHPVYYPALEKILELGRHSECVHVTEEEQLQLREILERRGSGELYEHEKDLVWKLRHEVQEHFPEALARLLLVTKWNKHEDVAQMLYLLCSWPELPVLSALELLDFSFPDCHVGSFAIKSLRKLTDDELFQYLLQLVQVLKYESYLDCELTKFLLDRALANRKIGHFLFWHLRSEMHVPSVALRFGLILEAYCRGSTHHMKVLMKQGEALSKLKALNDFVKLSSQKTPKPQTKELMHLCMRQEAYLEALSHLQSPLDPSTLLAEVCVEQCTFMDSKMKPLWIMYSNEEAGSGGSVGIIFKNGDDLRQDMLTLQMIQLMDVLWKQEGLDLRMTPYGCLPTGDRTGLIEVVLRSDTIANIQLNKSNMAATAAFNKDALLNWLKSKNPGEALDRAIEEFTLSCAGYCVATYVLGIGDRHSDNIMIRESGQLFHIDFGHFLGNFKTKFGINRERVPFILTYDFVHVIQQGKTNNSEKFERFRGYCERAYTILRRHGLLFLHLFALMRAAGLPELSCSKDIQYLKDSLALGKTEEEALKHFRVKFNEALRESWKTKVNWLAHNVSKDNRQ", "assay": "Scintillation Proximity Assay", "method": "The kinase reaction was conducted in polystyrene 384-well matrix white plate from Thermo Fisher Scientific in a final volume of 25 uL. Inhibitors were first diluted serially in DMSO and added to the plate wells before the addition of other reaction components. The final concentration of DMSO in the assay was 0.5%. The PI3K assays were carried out at room temperature in 20 mM MOPS, pH 6.7, 10 mM MgCl2, 5 mM DTT and CHAPS 0.03%. Reactions were initiated by the addition of ATP, the final reaction mixture consisted of 20 uM PIP2, 20 uM ATP, 0.2 uCi [gamma-33P]ATP, 4 nM PI3Kdelta. […] 25 mM EDTA, 400 uM ATP. The final concentration of SPA beads was 1.0 mg/mL. After the plate sealing, plates were shaken overnight at room temperature and centrifuged at 1800 rpm for 10 minutes, the radioactivity of the product was determined by scintillation counting on Topcount (PerkinElmer).", "units": {"IC50": "nM"}, "values": [{"smiles": "COc1c([C@H](C)n2cc(C)c3c(N)ncnc32)cc(Cl)c(C#N)c1C1CN([C@@H](C)CO)C1", "note": "[US10646492, Example 362]", "IC50": "< 10"}, {"smiles": "CCOc1c(C(C)n2cc(C)c3c(N)ncnc32)cc(Cl)c(C#N)c1C1CN([C@@H](C)CO)C1", "note": "(stereo partly drawn) [US10646492, Example 309]", "IC50": "< 10"}, {"smiles": "COc1c(C(C)n2nc(C)c3c(N)ncnc32)cc(Cl)c(C)c1-c1ccnc(C(=O)C(C)C)c1", "note": "(stereo not drawn) [US10646492, Example 16]", "IC50": "< 10"}]}]}
